Experimental findings from patent publication US5972894A, “Peptides having potassium channel opener activity” (Cytran, Inc., priority 1997, dated 1999) are described below.

Assay [1] has as its system ischemic myocardium. In words: Inotropic function and arrhythmias of ischemic isolated rat heart during reperfusion. The settings on record: for Diastolic Pressure in Ischemic Left Ventricle (% of Preischemic Mean Value) / Evolving Pressure in Ischemic Left Ventricle (% of Preischemic Mean Value) / Heart Rate during Reperfusion (% of Preischemic Mean Value) / Maximal Rate of Increase of Left Ventricle Pressure (% of Preischemic Mean Value) / Maximal Rate of Left Ventricle Pressure Decrease (% of Preischemic Mean Value) / Systolic Pressure in Ischemic Left Ventricle (% of Preischemic Values): 14.0 mg/l. From the text:
Rat hearts were surgically isolated from white random-bred rats weighing approximately 250 g. The isolated hearts were perfused with a standard oxygenated (95% O2 and 5% CO2) Krebs-Henseleit solution in a retrograde manner (i.e., according to Langendorff and using a constant perfusate pressure of 80 cm of water). The hearts maintained a steady spontaneous contraction rate. A latex balloon catheter connected to a pressure transducer (EMT-746, Siemens-Elema, Sweden) was inserted into the left ventricle of each heart to measure the inotropic function of the heart (as described in Example 3, above). The left ventricle pressure variation curve was recorded using a polygraph.
Stage I ("adaptation regimen") consisted of a 30-minute adaptation of the respective rat hearts to the perfusion regimen. The baseline parameters for the inotropic function of each heart were recorded to establish the preischemic values for the following measured parameters: (i) the systolic pressure in the left ventricle (Psyst. mm Hg); (ii) the diastolic pressure in the left ventricle (Pdiast. mm Hg); (iii) the evolving pressure (Pev. =Psyst. -Pdist. mm Hg); (iv) the maximal rate of increase of left ventricle pressure (+dp/dtmax mm Hg/sec); and (v) the maximal rate of decrease of left ventricle pressure (-dp/dtmax mm Hg/sec). In addition, the heart rate (HR) of each heart was determined from the recordings made of the variations in the left ventricle pressure over time. In Stage II ("ischemic simulation"), ischemia was induced in each heart by shutting off the supply of the perfusion solution to the heart. Approximately 30 minutes later, Stage III ("reperfusion regimen") was initiated by restarting the reperfusion and including in the perfusate solution a test or control substance at one of the following respective concentrations: a perfusate solution of a test substance comprised 0.06, 0.6, or 6.0 mg/l GE, or 0.06, 0.6, or 6.0 mg/l VT, respectively; a perfusate solution of the positive control substance comprised 14 mg/l inosine. Inosine is a nucleoside preparation that produces a favorable inotropic effect on both normal and ischemic myocardium while inducing no rhythm disturbances or acceleration of ischemic contracture development. Woollard et al., Cardiovasc. Res. 15: 659-67 (1981). Inosine was obtained from Sigma Chemical Company, USA (Cat. Code I-4125; lot number 81H0227). The negative control substance comprised reperfusion using a standard oxygenated Krebs-Henseleit solution.
For each heart, the inotropic function of the myocardium was evaluated by measuring the parameters (i) through (v), discussed above, and the heart rate. These six parameters were recorded continuously throughout the study (i.e., beginning with Stage I and continuing through Stage III). The recordings were analyzed at the following times: (a) immediately before beginning Stage II (that is, after the 30-minute Stage I adaptation period, but before stopping perfusion); and (b) at 1, 5, 10, 20, and 30 minutes into the Stage III reperfusion.
The frequency and duration of rhythm disturbances in the 30-minute Stage III reperfusion period were determined by measuring the following parameters: (i) the number of ventricular extrasystoles; (ii) the overall duration of ventricular tachycardias (in seconds); and (iii) the overall duration of ventricular fibrillation (in seconds). Each dose of the test substance was tested on nine isolated hearts.

Assay [2] deals with Isolated Rat Heart. In words: Inotropic function of normal isolated rat heart, Langendorff perfusion. The following applies: dose 0.01 mg. An excerpt:
Rat heart specimens were obtained surgically from white random-bred male rats weighing approximately 250 g. The hearts were established in culture using retrograde heart perfusion according to the Langendorff method performed with a standard oxygenated (95% O2 and 5% CO2) Krebs-Henseleit solution through a glass aorta cannula. The retroperfusion pressure forces the aortic valves shut. In this way, the oxygenated solution passed only through the coronary vasculature of the heart such that both ventricles remain effectively empty. Perfusion conditions: An average constant perfusate flow rate of 15 to 25 ml/min was maintained with a constant perfusate pressure of 80 cm H2 O. Pressure Measurements: A latex balloon catheter connected with a pressure transducer ([…], Sweden) was inserted into the left ventricle of the heart to measure parameters of the inotropic function of the heart. The intraventricle pressure variation curve for the left ventricle was recorded with a polygraph. Experimental Protocol: GE and VT served as the test substances. After a 30-minute adaptation of the heart to the organ culture perfusion conditions, a set of basal (control) measurements was taken, as described in (i) through (v) below. […] See GOODMAN […] THE PHARMACOLOGICAL BASIS OF THERAPEUTICS 160 (Goodman et al., eds., 7th ed. 1985), incorporated herein by reference in its entirety for all purposes. Each dose of each respective test or reference substance was tested on four different rat hearts. The inotropic functions of each of the four rat hearts were evaluated by measuring: (i) the systolic pressure in the left ventricle ([…] diastolic pressure in the left ventricle ([…] evolving pressure (Pev. =[…]); (iv) the maximal rate of increase of left ventricle pressure (+dp/dtmax mm Hg/sec); and (v) the maximal rate of decrease of left ventricle pressure (-dp/dtmax mm Hg/sec). In addition, the heart rate (HR) of each heart was determined from the pressure variation recordings made of the left ventricle pressure.

Assay [3] has as its system rats. In words: Arterial blood pressure in anesthetized rats. It is filed as in vivo. The settings on record: 5 mg/kg i.v. The protocol:
White random-bred male rats weighing approximately 200 g were employed for this study. Each dose of each respective test or control substance was administered to a group of five rats. GE and VT were employed as test substances and were administered intravenously at doses of 0.01, 0.1, 1.0, and 10.0 mg/kg. Physiological saline (0.2 ml) served as the negative control substance. The ganglionic blocking agent, pentamine, served as the positive control substance and was tested at a dose of 5 mg/kg. Following administration of the test substance, positive control substance, or negative control substance, the arterial blood pressure of each animal was monitored.
Prior to administration of the test or control substance, each animal was anesthetized with Chloralose and then both its carotid artery and jugular vein were catheterized. The carotid catheter was connected to an electronic manometer attached to a computer recorder through an analog-to-digital converter. The mean basal level of the arterial blood pressure was determined as follows: For a period of 30 seconds, the digital signal pertaining to the arterial blood pressure was recorded at 1-second intervals. The mean value of these thirty individual measurements was then determined and recorded.
After determining the mean basal level of the arterial blood pressure, a particular dose of the test or control substance was administered in a volume of 0.2 ml of physiological saline to an animal through the jugular venous catheter. Measurements of the arterial blood pressure were then taken during the next 1.5 hours as follows: (i) during the first 5 minutes, the arterial blood pressure was being monitored continuously and mean values were calculated electronically and recorded at each of the ten different 30-second intervals (i.e., 30th second, 60th second, etc.); (ii) thereafter, mean values of the arterial blood pressure were calculated at the first seconds of 10th minute, 15th minute, 30th minute, 45th minute, 60th minute, 75th minute, and 90th minute after administration of the respective test or control substance.

The mark [4] stands for this setting: 14.1 mg/l, 30-minute reperfusion.

Turning to `OC[C@H]1O[C@@H](n2cnc3c(O)ncnc32)[C@H](O)[C@@H]1O` [Inosine, reference compound], in assay [1] (1 min reperfusion), the “Diastolic Pressure in Ischemic Left Ventricle (% of Preischemic Mean Value)” value came out at 92.35%, the “Evolving Pressure in Ischemic Left Ventricle (% of Preischemic Mean Value)” value is listed as 57.13%, the “Heart Rate during Reperfusion (% of Preischemic Mean Value)” value came out at 45.37% and the “Maximal Rate of Increase of Left Ventricle Pressure (% of Preischemic Mean Value)” value is given as 50.85%. Further, in assay [1] (1 min reperfusion), the “Maximal Rate of Left Ventricle Pressure Decrease (% of Preischemic Mean Value)” value was 41.91% and the “Systolic Pressure in Ischemic Left Ventricle (% of Preischemic Values)” value (“Systolic Pressure … (% of Preischemic Values)” for short) is 62.15%. In assay [1] (5 min reperfusion), the “Diastolic Pressure in Ischemic Left Ventricle (% of Preischemic Mean Value)” value turned out to be 111.83%, the “Evolving Pressure in Ischemic Left Ventricle (% of Preischemic Mean Value)” value came out at 57.59%, the “Heart Rate during Reperfusion (% of Preischemic Mean Value)” value was determined as 69.97% and the “Maximal Rate of Increase of Left Ventricle Pressure (% of Preischemic Mean Value)” value is given as 54.25%. In addition, in assay [1] (5 min reperfusion), the “Maximal Rate of Left Ventricle Pressure Decrease (% of Preischemic Mean Value)” value is reported as 65.94% and the “Systolic Pressure … (% of Preischemic Values)” value is reported as 66.17%. In assay [1] (10 min reperfusion), the “Diastolic Pressure in Ischemic Left Ventricle (% of Preischemic Mean Value)” value is 139.32%, the “Evolving Pressure in Ischemic Left Ventricle (% of Preischemic Mean Value)” value stood at 82.33%, the “Heart Rate during Reperfusion (% of Preischemic Mean Value)” value stood at 67.52% and the “Maximal Rate of Increase of Left Ventricle Pressure (% of Preischemic Mean Value)” value came out at 82.35%. Moreover, in assay [1] (10 min reperfusion), the “Maximal Rate of Left Ventricle Pressure Decrease (% of Preischemic Mean Value)” value is reported as 78.85% and the “Systolic Pressure … (% of Preischemic Values)” value was determined as 86.05%. Further, in assay [1] (20 min reperfusion), the “Diastolic Pressure in Ischemic Left Ventricle (% of Preischemic Mean Value)” value worked out at 148.63%, the “Evolving Pressure in Ischemic Left Ventricle (% of Preischemic Mean Value)” value was 94.19%, the “Heart Rate during Reperfusion (% of Preischemic Mean Value)” value turned out to be 79.97% and the “Maximal Rate of Increase of Left Ventricle Pressure (% of Preischemic Mean Value)” value worked out at 83.58%. In assay [1] (20 min reperfusion), the “Maximal Rate of Left Ventricle Pressure Decrease (% of Preischemic Mean Value)” value is recorded as 91.83% and the “Systolic Pressure … (% of Preischemic Values)” value is listed as 99.29%. Besides, in assay [1] (30 min reperfusion), the “Diastolic Pressure in Ischemic Left Ventricle (% of Preischemic Mean Value)” value is on record as 149.42%, the “Evolving Pressure in Ischemic Left Ventricle (% of Preischemic Mean Value)” value was found to be 91.68%, the “Heart Rate during Reperfusion (% of Preischemic Mean Value)” value came out at 75.60% and the “Maximal Rate of Increase of Left Ventricle Pressure (% of Preischemic Mean Value)” value came out at 77.85%. In addition, in assay [1] (30 min reperfusion), the “Maximal Rate of Left Ventricle Pressure Decrease (% of Preischemic Mean Value)” value came to 93.88% and the “Systolic Pressure … (% of Preischemic Values)” value is 96.62%. For the same compound, the “-dp/dtmax, % of preischemic value” in assay [1] (14 mg/l, after approximately 10 to 20 minutes) is given as “about 80%”. In addition, in assay [1] (setting [4]), the “Number of Ventricular Extrasystoles” value is recorded as 230.4, the “Overall Duration of Ventricular Fibrillation” value was 52.9 s and the “Overall Duration of Ventricular Tachycardia” value was found to be 1.3 s.
Turning to `CC(C)NCC(O)c1ccc(O)c(O)c1` (stereo not drawn) [Isoproterenol, isoproterenol, reference compound], in assay [2], the “+dp/dtmax % of Basal Level” value is on record as 122%, the “+dp/dtmax Subst. Level” value amounted to 2110 mm Hg/sec, the “-dp/dtmax % of Basal Level” value worked out at 112% and the “-dp/dtmax Subst. Level” value turned out to be 1140 mm Hg/sec. Besides, in assay [2], the “HR % of Basal Level” value turned out to be 133%; the “HR abs, Subst. Level” value was 255 hb/min; the “Pdiast % of Basal Level” value worked out at 120%; the “Pdiast abs, Subst. Level” value was found to be 12 mm Hg. Besides, in assay [2], the “Pev % of Basal Level” value turned out to be 118%, the “Pev Subst. Level” value is reported as 108 mm Hg and the “Psyst % of Basal Level” value stood at 117%.
For `CC[N+](C)(C)CCN(C)CC[N+](C)(C)CC` [Pentamine, pentamine, reference compound], the “Arterial Blood Pressure (Basal Level = 100.00)” value in assay [3] (1 min) worked out at 87.09%; in assay [3] (2 min) it was 68.18%; in assay [3] (3 min), 70.82%; in assay [3] (4 min) it was 69.29%; in assay [3] (5 min) it was 74.11%; in assay [3] (10 min), 91.63%. For the same compound, the “Arterial Blood Pressure (Basal Level = 100.00)” value is listed as 89.94% in assay [3] (15 min); 86.95% in assay [3] (30 min); 93.89% in assay [3] (45 min); 100.31% in assay [3] (60 min); 94.38% in assay [3] (75 min); 93.22% in assay [3] (90 min).
